Assay results from article PMC6008489 (Bioorganic & Medicinal Chemistry, 2018).

Assays:
Assay type in all cases: biochemical
[1] = target: T1, FYN (Homo sapiens, UniProt P06241); assay: 26-kinase panel mobility shift assay, single concentration; details: read-out: % Inhibition FYN
T1 construct: purchased Perkin Elmer (ProfilerPro assay kit 1)
Method: (§1) A mobility shift assay to determine kinase inhibition was carried out using a
(§2) modified version of the ProfilerPro assay kit 1 (Perkin Elmer, Coventry, UK)
(§3) including MPS1 and Aurora B. Each kit contained an enzyme plate, a substrate
(§4) plate, reconstitution buffer, 1 M DTT, protease inhibitor cocktail and termination
(§5) buffer. Test compounds were added as a solution in DMSO.
(§6) peptide phosphorylation assay was carried out as per the manufacturer’s
(§7) instructions. The electrophoretic separation and analysis of the phosphorylated
(§8) and non-phosphorylated peptides was carried out on a 4-sipper chip using a
(§9) LabChip EZReader II (Perkin Elmer). Results were expressed as % inhibition of
(§10) peptide phosphorylation relative to control wells for 0 % (no test compound) and
(§11) 100 % (no ATP) inhibition. The percentage inhibition was calculated using the
(§12) % Inhibition = [1 - (% Conversion Sample / % Conversion 0% Inhibition Control)] x 100

[2] = target: T2, LCK (Homo sapiens, UniProt P06239); assay: as above; details: read-out: % Inhibition LCK
T2 construct: purchased Perkin Elmer (ProfilerPro assay kit 1)
Method: as §1, §2, §3, §4, §5, §6, §7, §8, §9, §10, §11, §12

[3] = target: T3, ABL (Homo sapiens, UniProt P00519); assay: as above; details: read-out: % Inhibition ABL
T3 construct: purchased Perkin Elmer ProfilerPro assay kit 1
Method: Mobility Shift Assay Protocol
(§13) Screening of 26 kinases using a mobility shift assay
as §1, §2, §3, §4, §5, §6, §7, §8, §9, §10, §11, §12

[4] = target: T4, INSR (Homo sapiens, UniProt P06213); assay: as above; details: read-out: % Inhibition INSR
T4 construct: purchased Perkin Elmer (ProfilerPro assay kit 1)
Method: (§14) In order to test the biochemical activity of our fragment library, a panel of 26 structurally diverse protein kinases was used.
as §13, §1, §2, §3, §4, §5, §6, §7, §8, §9, §10, §11, §12

[5] = target: Aurora B (Homo sapiens, UniProt Q96GD4); details: for Ki: calculated from mean IC50 using the Cheng-Prusoff equation, read-out: AurB Ki; for AurB ligand efficiency (LE): from Ki;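 as to all read-outs here: aurora B inhibition measured in a mobility shift assay, underlying mean IC50 taken from two independent duplicate runs at 8 compound concentrations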
Method: (§15) IC50 values were obtained for an expanded version of the fragment library using the previously described mobility shift assay.[44] Subsequently, Ki values were estimated from IC50 values to allow better comparison of the activity against targets which were measured at different substrate concentrations (Supplementary data Table 1).
(§16) IC50 values for MPS1, Aurora A and Aurora B inhibition were determined as previously described,[44] and Ki values were estimated from the mean IC50 values using the Cheng-Prusoff equation.[48]
(§17) Kinase [ATP] (M) [Enzyme] (nM) [Peptide Substrate] (M) MgCl2 (mM)
(§18) For all compounds, IC50 values for MPS1, Aurora A, and Aurora B were determined
(§19) using MPS1 and Aurora A/B mobility shift assays as described previously.1 IC50
(§20) values were calculated from a four-parameter logistic fit of percentage inhibition
(§21) versus concentration (at 8 compound concentrations) using GraphPad Prism 5
(§22) (GraphPad Software, Inc., CA, USA). Mean IC50 values were determined from two
(§23) independent measurements each carried out in duplicate. Ki values were estimated
(§24) from the mean IC50 values using the Cheng-Prusoff equation.

[6] = target: T5, Aurora A (Homo sapiens, UniProt O14965); details: for Ki: calculated from mean IC50 using the Cheng-Prusoff equation, read-out: AurA Ki; for AurA ligand efficiency (LE): from Ki
T5 sequence (O14965 1-403): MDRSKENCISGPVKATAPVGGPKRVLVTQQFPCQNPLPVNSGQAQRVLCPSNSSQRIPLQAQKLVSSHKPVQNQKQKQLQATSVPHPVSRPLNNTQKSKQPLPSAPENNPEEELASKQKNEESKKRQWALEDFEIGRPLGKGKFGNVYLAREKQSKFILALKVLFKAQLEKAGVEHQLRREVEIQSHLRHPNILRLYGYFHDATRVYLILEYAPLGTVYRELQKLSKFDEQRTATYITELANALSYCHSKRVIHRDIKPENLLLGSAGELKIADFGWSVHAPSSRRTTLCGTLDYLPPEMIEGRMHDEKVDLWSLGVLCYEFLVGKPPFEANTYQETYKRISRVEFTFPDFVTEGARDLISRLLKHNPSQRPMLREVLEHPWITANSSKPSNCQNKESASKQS
Method: as §15, §16, §17, §18, §19, §20, §21, §22, §23, §24

[7] = target: T6, PRAK (Homo sapiens, UniProt Q8IW41); assay: 26-kinase panel mobility shift assay, single concentration; details: read-out: % Inhibition PRAK
T6 construct: purchased Perkin Elmer (ProfilerPro assay kit 1)
T6 sequence (Q8IW41 1-473): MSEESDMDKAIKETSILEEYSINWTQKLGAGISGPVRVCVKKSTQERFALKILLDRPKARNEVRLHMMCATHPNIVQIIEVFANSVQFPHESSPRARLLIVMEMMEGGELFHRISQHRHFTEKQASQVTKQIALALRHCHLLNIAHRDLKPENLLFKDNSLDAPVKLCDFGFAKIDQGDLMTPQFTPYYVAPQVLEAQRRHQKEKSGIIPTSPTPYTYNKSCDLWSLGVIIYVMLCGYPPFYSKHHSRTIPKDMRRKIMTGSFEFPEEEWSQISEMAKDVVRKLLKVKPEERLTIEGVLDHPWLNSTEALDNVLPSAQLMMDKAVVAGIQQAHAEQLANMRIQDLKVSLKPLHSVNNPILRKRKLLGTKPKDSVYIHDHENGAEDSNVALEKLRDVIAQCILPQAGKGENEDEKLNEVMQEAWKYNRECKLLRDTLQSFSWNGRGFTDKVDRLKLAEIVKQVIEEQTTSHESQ
Method: as §1, §2, §3, §4, §5
final concentration. […] The
as §6, §7, §8, §9, §10, §11, §12

[8] = target: T7, CK1d (Homo sapiens, UniProt P48730); assay: as above; details: read-out: % Inhibition CK1d
T7 construct: purchased Perkin Elmer (ProfilerPro assay kit 1)
Method: as §1, §2, §3, §4, §5, §6, §7, §8, §9, §10, §11, §12

[9] = target: T8, MPS1 (Homo sapiens, UniProt P33981); details: for Ki: calculated from mean IC50 using the Cheng-Prusoff equation; for MPS1 ligand efficiency (LE): from Ki
T8 sequence (P33981 1-857): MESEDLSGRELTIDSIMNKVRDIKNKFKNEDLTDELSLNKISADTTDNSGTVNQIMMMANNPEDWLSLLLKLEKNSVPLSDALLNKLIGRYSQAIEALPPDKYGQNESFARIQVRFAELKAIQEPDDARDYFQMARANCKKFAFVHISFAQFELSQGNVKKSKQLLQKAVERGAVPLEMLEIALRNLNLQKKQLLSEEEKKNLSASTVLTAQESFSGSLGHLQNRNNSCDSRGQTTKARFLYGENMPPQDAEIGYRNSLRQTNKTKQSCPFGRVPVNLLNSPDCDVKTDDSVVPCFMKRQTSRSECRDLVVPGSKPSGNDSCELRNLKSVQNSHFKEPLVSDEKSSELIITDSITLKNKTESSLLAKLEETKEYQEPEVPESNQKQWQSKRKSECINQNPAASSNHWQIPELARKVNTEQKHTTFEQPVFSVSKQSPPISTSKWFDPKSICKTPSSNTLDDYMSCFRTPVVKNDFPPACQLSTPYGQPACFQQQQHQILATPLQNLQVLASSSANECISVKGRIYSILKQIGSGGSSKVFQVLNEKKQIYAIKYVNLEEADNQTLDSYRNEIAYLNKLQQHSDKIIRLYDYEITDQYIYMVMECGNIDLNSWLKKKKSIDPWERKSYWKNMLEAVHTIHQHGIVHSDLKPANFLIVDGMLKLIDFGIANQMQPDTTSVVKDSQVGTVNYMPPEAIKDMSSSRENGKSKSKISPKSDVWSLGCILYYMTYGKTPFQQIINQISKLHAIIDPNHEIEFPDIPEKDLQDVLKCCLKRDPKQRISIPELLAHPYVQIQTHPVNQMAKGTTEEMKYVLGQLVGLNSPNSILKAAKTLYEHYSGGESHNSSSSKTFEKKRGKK
Method: as §15, §16, §17, §18, §19, §20, §21, §22, §23, §24

[10] = target: T9, AKT2 (Homo sapiens, UniProt P31751); assay: 26-kinase panel mobility shift assay, single concentration; details: read-out: % Inhibition AKT2
T9 construct: purchased Perkin Elmer ProfilerPro assay kit 1
T9 sequence (P31751 whole entry): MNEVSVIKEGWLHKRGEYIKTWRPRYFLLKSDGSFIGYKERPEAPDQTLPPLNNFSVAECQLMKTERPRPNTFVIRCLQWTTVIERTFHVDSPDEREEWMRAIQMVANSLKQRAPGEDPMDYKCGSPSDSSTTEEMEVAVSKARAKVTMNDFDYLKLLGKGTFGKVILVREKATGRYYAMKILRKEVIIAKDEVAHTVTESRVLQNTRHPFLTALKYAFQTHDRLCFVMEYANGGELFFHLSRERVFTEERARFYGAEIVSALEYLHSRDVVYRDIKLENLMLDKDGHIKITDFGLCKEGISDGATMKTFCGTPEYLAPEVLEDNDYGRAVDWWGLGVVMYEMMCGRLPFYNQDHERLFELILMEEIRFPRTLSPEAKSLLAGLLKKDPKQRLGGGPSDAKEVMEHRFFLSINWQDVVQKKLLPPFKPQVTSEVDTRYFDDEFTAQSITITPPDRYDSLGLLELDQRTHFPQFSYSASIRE
Method: as §14, §13, §1, §2, §3, §4, §5, §6, §7, §8, §9, §10, §11, §12

T3 sequence (P00519 whole entry): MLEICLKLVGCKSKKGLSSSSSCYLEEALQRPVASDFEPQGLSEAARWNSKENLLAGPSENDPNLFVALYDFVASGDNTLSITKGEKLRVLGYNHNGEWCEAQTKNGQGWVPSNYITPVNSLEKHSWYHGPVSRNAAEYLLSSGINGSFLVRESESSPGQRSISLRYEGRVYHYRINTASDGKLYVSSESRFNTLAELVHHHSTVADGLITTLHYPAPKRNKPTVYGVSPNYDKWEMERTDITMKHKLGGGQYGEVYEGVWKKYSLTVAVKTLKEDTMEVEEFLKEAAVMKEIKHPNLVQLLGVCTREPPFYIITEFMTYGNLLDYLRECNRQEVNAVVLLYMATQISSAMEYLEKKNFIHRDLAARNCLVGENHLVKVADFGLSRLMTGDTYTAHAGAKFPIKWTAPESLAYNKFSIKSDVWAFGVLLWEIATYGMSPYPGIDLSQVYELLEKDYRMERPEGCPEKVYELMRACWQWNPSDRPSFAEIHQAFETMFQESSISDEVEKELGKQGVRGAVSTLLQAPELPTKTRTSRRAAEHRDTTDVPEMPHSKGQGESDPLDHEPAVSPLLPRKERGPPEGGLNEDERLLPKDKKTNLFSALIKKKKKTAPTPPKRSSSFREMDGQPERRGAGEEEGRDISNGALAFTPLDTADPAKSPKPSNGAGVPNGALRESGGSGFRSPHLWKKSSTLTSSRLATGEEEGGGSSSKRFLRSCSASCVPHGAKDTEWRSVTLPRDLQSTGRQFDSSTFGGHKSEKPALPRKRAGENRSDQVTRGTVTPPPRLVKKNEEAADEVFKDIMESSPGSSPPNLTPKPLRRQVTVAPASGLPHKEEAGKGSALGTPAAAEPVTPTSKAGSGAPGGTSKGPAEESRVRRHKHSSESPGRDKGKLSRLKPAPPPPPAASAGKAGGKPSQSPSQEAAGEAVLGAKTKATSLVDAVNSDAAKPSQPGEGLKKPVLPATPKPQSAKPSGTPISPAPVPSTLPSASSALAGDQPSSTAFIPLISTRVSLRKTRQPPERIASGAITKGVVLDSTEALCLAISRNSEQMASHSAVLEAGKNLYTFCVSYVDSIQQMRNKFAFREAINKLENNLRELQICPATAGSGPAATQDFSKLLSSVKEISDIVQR
T4 sequence (P06213 28-1382): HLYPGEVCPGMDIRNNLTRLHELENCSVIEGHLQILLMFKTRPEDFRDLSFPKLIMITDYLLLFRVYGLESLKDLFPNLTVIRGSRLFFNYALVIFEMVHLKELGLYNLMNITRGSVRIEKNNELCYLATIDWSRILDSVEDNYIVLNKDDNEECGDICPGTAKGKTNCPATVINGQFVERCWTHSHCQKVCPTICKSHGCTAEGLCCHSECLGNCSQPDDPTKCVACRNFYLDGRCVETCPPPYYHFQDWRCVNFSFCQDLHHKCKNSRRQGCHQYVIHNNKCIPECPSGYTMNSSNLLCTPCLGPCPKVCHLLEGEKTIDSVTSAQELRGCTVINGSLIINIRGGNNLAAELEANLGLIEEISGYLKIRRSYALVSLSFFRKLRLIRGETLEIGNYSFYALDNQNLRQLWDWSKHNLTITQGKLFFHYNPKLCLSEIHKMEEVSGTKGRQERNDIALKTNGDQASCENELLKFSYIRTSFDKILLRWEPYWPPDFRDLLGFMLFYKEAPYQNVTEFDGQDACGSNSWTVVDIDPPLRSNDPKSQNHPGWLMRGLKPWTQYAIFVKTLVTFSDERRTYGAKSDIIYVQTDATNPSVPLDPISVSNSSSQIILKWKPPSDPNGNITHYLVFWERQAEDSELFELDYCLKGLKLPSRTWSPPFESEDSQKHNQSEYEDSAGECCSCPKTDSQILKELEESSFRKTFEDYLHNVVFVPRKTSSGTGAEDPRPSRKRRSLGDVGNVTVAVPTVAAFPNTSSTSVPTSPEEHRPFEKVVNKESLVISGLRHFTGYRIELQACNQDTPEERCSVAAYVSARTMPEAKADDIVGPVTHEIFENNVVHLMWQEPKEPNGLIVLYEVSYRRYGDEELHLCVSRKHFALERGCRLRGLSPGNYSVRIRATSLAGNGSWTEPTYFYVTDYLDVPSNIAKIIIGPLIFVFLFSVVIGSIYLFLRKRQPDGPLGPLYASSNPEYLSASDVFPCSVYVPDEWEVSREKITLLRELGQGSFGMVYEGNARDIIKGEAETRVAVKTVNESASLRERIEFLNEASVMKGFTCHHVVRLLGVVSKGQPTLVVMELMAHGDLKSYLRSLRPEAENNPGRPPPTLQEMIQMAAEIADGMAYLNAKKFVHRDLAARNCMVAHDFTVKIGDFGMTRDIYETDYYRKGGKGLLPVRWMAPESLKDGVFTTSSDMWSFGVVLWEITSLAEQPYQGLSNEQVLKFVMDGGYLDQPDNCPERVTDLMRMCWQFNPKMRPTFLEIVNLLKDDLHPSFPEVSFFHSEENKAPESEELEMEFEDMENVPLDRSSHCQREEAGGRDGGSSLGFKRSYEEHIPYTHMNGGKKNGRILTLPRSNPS
T2 sequence (P06239 whole entry): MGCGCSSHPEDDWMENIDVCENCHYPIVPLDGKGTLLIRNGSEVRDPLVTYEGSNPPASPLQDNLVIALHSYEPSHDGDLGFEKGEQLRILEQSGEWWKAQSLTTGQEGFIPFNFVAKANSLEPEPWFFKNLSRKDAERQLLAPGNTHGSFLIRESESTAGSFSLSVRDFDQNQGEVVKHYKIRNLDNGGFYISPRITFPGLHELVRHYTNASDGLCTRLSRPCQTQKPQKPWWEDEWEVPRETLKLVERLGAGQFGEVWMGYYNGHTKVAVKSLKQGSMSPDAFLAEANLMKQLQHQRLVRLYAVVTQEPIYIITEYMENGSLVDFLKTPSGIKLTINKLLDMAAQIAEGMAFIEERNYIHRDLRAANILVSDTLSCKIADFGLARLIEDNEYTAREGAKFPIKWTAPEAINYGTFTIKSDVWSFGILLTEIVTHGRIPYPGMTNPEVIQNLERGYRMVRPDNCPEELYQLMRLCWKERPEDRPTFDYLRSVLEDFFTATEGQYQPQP
T7 sequence (P48730 whole entry): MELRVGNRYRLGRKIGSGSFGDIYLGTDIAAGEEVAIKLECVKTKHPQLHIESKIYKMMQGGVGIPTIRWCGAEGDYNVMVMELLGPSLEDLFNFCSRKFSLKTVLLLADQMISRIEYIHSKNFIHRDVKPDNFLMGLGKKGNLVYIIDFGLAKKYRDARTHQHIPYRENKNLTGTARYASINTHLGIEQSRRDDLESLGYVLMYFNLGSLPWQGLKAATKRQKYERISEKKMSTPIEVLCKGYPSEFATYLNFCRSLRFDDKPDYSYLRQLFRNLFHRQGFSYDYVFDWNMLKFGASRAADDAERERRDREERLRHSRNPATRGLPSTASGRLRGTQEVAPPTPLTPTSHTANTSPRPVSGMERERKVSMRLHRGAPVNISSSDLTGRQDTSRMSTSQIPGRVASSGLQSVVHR
T1 sequence (P06241 whole entry): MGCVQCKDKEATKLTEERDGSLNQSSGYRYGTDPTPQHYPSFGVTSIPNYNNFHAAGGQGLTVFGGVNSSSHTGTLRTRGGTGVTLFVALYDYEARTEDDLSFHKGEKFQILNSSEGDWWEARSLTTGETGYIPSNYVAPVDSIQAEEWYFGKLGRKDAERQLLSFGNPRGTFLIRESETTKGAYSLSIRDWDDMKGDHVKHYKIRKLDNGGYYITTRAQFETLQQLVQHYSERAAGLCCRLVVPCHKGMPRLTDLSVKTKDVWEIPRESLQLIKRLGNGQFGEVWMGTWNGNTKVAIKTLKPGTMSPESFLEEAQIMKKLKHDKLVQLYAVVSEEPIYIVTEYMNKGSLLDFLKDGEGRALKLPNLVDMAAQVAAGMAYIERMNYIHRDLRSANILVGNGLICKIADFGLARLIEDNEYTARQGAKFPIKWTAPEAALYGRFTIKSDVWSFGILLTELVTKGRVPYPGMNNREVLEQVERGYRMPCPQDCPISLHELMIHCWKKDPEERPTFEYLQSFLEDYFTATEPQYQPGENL
Chain of Aurora B (Q96GD4 whole entry): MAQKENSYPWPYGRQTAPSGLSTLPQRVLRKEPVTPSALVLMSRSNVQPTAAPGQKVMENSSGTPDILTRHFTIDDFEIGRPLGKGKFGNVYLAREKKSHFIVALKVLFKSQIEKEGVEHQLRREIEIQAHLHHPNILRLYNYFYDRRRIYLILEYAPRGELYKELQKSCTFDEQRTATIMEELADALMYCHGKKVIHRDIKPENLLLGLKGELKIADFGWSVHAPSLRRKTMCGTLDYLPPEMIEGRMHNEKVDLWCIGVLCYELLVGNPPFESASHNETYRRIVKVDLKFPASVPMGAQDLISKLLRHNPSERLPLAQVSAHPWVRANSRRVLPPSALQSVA

| SMILES | inhibition at 100 µM [1] [%] | inhibition at 100 µM [2] [%] | inhibition at 100 µM [3] [%] | inhibition at 100 µM [4] [%] | Ki [5] [µM] | AurB ligand efficiency (LE) [5] | Ki [6] [µM] | AurA ligand efficiency (LE) [6] | inhibition at 100 µM [7] [%] | inhibition at 100 µM [8] [%] | Ki [9] [µM] | MPS1 ligand efficiency (LE) [9] | inhibition at 100 µM [10] [%] | inhibition at 30 µM [1] [%] | inhibition at 30 µM [2] [%] | inhibition at 30 µM [3] [%] | inhibition at 30 µM [4] [%] | inhibition at 30 µM [7] [%] | inhibition at 30 µM [8] [%] | inhibition at 30 µM [10] [%] | also measured |
| --- | --- | --- | --- | --- | --- | --- | --- | --- | --- | --- | --- | --- | --- | --- | --- | --- | --- | --- | --- | --- | --- |
| CNc1nccc(-c2c[nH]c(=O)c(N)c2)n1 [Compound 7] | 66 | 55 | 67 | 80 | 15.1 | 0.41 | 21.3 | 0.40 | 88 | 79 | 25.6 | 0.39 | 93 | – | – | – | – | – | – | – | – |
| Nc1cc(-c2ccnc(NC3CC3)n2)c[nH]c1=O [Compound 8] | 51 | 38 | 43 | 27 | 12 | 0.37 | 30.2 | 0.34 | 24 | 63 | 11 | 0.37 | 18 | – | – | – | – | – | – | – | – |
| O=C(Nc1cc(-c2ccnc(NC3CC3)n2)c[nH]c1=O)c1ccccc1 [Compound 24] | – | – | – | – | 3.6 | 0.28 | 17.3 | 0.25 | – | – | 3.2 | 0.29 | – | 93 | 75 | 88 | 27 | 71 | 78 | 91 | – |
| Cc1nc(O)c(N)cc1-c1ccncc1 [Compound 15, 3-Amino-6-methyl-5-(pyridin-4-yl)pyridin-2-one] | 6 | 4 | 5 | 23 | 25.7 | 0.42 | > 100 | – | 24 | 33 | > 100 | – | 17 | – | – | – | – | – | – | – | – |
| Cn1cc(-c2c[nH]c(=O)c(N)c2)cn1 [Compound 2, 3-Amino-5-(1-methyl-1H-pyrazol-4-yl)pyridin-2(1H)-one] | 34 | 11 | 58 | 25 | 3.2 | 0.53 | 7.5 | 0.53 | 99 | 72 | 94.7 | 0.39 | 97 | – | – | – | – | – | – | – | – |
| Nc1ccc[nH]c1=O [Compound 1, 3-aminopyridin-2-one] | 11 | 4 | 5 | 2 | 160 | 0.64 | 361 | 0.59 | 19 | 45 | > 1000 | – | 77 | – | – | – | – | – | – | – | – |
| CN1CCN(c2ccc(C(=O)Nc3cc(-c4ccncc4)c[nH]c3=O)cc2)CC1 [Compound 22] | – | – | – | – | 5.5 | 0.25 | 14.9 | 0.23 | – | – | 4.8 | 0.25 | – | 95 | 97 | 96 | 30 | 10 | 31 | 13 | – |
| Nc1cc(-c2ccnc3ccccc23)c[nH]c1=O [Compound 6] | 40 | 40 | 66 | 13 | 41.7 | 0.33 | 76.3 | 0.31 | 15 | 37 | 30.2 | 0.34 | 9 | – | – | – | – | – | – | – | – |
| COc1ncc(-c2ccncc2)cc1N [Compound 5, 6-Methoxy-3,4′-bipyridin-5-amine] | 9 | 7 | 26 | 6 | 63.9 | 0.38 | 185 | 0.31 | 1 | 38 | 91.2 | 0.37 | 4 | – | – | – | – | – | – | – | – |
| O=C(Nc1cc(-c2ccncc2)c[nH]c1=O)c1ccccc1 [Compound 16, N-(2-Oxo-5-(pyridin-4-yl)-1,2-dihydropyridin-3-yl)benzamide] | – | – | – | – | 41 | 0.27 | 3.3 | 0.34 | – | – | 5.4 | 0.33 | – | 59 | 45 | 55 | 13 | 1 | 79 | 4 | fold increase in inhibitory activity against MPS1 relative to compound 3 ([9]; from Ki values, Table 1 and Table 2): 15 fold |
